The nature of data set [1]: Acrylamide quenching of Trp fluorescence in absence and presence of lipid vesicles. Format: physicochemical. The conditions noted are these: 2 μM peptide in PBS pH 7.0, λex 295 nm, λem 340, average of three replicates ± SD; for Acrylamide quenching Ksv, PCPG: 3:1 DOPC:DOPG vesicles; for Acrylamide quenching Ksv, PCPG / Acrylamide quenching Ksv, PEPG / Acrylamide quenching Ksv, PC / Acrylamide quenching Ksv, PC/Chol: 250 μM lipid; for Acrylamide quenching Ksv, PEPG: 3:1 POPE:DOPG vesicles; for Acrylamide quenching Ksv, PC: DOPC vesicles; for Acrylamide quenching Ksv, PC/Chol: DOPC:Cholesterol vesicles; for Acrylamide quenching Ksv, PBS: no lipid vesicles. As for the experimental part: To form small unilamellar vesicles (SUVs) sonication or ethanol dilution methods were implemented ([Caputo & London, 2019]). In all cases, lipid vesicle preparation was the same. Depending on the lipid composition, appropriate volumes of lipids in chloroform were mixed in a glass tube and then allowed to dry under N2 gas for 15 minutes. The lipid films were then placed in a vacuum desiccator and allowed to dry further under a vacuum for 1 hour. For vesicles formed through ethanol dilution methods, 10 μL of pure ethanol was added to the film, and then vortex until the dissipation of the film. While continuing to vortex, the appropriate amount of PBS was added. For vesicles formed using the method of sonication, PBS was added directly to the tube while being vortexed to create multilamellar vesicles (MLVs). The MLV suspension was covered with parafilm and then placed in a high-powered bath sonicator (Avanti Lipids) and subjected to sonication for 20 minutes to create SUVs.
Acrylamide quenching was monitored by titration of samples with 10 μL aliquots of 4M acrylamide titrated into peptide samples prepared as described above. These samples contained either or [0.25] mM total lipid. After each addition of acrylamide, Trp fluorescence intensity was measured using λex = 295 nm and λem = 340. Corrections to the emission intensity were made for background subtraction, dilutions, and inner filter effects in the excitation path as described previously. The same method to calculate Ksv was used as above.
In order to gain more insight into the bilayer interactions, fluorescence quenching approaches were utilized. The peptides were exposed to the aqueous quencher acrylamide in solution or when bound to vesicles. […] Thus, peptide Trp exposure to the aqueous milieu can be gauged by the extent of quenching by acrylamide. Stern-Volmer quenching plots were created to analyze the data and Ksv (slopes of a linear fit to the data) are shown in Figure 4 and Table 2. […] In the case of L1L and L1I, there was a significant reduction in quenching between the solution (free) state of the peptide and when bound to anionic vesicles, but a much smaller reduction if any when interacting with zwitterionic vesicles. This is consistent with a more deeply buried Trp in anionic bilayers.

The test system of data set [2] is Sheep red blood cells (RBCs). Kind of data set: Hemolysis. In kind it is cell-based. The conditions noted are these: ovine RBCs, 1 hour at 37 C, up to 15μM peptide, absorbance 415 nm, normalised to Triton X-100; average of three replicates. As for the experimental part: Hemolysis on Sheep red blood cells (RBCs) was used to quantify the destabilization of membranes by leakage of hemoglobin. Sheep blood was obtained through Hemostat Laboratories and stored at 2 – 8 C. A 7 mL aliquot of whole sheep blood was mixed with 7 mL of sterile PBS at pH 7.4. The solution was sedimented via centrifugation for 7 minutes at 2500 rpm. Supernatant was removed and the pellet was resuspended to the original volume of 14 mL. This was repeated three times and the final pellet was resuspended to 14 with PBS. Next, 90 μl of the cell suspension was pipetted into all wells of a conical bottom 96-well plate. […] The absorbance of the plate was taken at 415 nm using a Spectramax M5 multimode plate reader. By using the absorbance of each well compared to the wells without additive and those with Triton-X 100 a percentage of hemolysis was calculated. […]
Hemolytic activity of venom peptides and, more broadly AMPS in general, has often been a first approximation toward assessing potential for further development. […] The peptides we co-incubated with freshly isolated ovine red blood cells and peptide-induced hemolysis was determined by comparing hemoglobin leakage from treated cells to that of untreated cells as well as cells treated with the detergent Triton X-100 as a positive control.

Data set [3] relates to Gram-positive and Gram-negative strains. Kind of data set: Antimicrobial activity over the MIC panel. In kind it is cell-based. The conditions noted are these: highest concentration tested 15μM. As for the experimental part:
Six different strains of bacteria were streaked on LB-Miller agar plates from a frozen glycerol stock derived from the original samples shipped from CGSC (Coli Genetic Stock Center, Yale University) or ATCC (American Type Culture Collection) (Escherichia coli D31 CGSC 5165 ([Burman, Nordstrom & Boman, 1968]), Staphylococcus aureus ATCC 35556. Pseudomonas aeruginosa PA-01 ATCC 47085, Acinetobacter baumannii ATCC 19606). For each of the strains a liquid overnight culture was prepared using a single colony into fresh LB broth and placed in a shaking incubator for ~ 18 hours at 37 C at 225 rpm. After the incubation period, a 1:200 dilution was made in fresh LB broth and then used for experimentation. Minimal Inhibitory Concentration (MIC) determinations were performed using mid-log phase bacteria diluted to 5 x 10^5 CFU/mL. Next, 90 μL of this diluted culture was then pipetted into a sterile 96-well plate that contains serially diluted aliquots of the peptide variants to consist of a total volume of 100 μL. This plate was then incubated for 18 hours at 37 C. Bacterial growth was determined by taking an OD600 measurement using a Spectramax M5 multimode plate reader post incubation. Minimal Bactericidal Concentration (MBC) was performed by taking 1 μL of the culture from the MIC plate and then pipetting it on to a fresh LB agar plate. After plating this culture, the plate was then incubated overnight at 37 C. MBC was determined by the growth or the lack of growth from each well on the agar plate.
The ability of L1 and the hydrophobic variants to act as antimicrobials was investigated using the Minimal Inhibitory Concentration (MIC) and Minimal Bactericidal Concentration (MBC) assays as previously described ([Wiegand, Hilpert & Hancock, 2008]). The MIC is determined as the lowest concentration of peptide required to inhibit bacterial growth in solution, while the MBC is the lowest concentration required to act in a bactericidal mechanism (as opposed to bacteriostatic) and is determined by plating MIC cultures on antimicrobial-free media. Peptides were screened against E. coli, S. aureus, A. baumannii, P. aeruginosa, B. subtilis, and K. pneumoniae.

This is an account of results in PMC9114170, “Investigation of the Role of Hydrophobic Amino Acids on the Structure-Activity Relationship in the Antimicrobial Venom Peptide Ponericin L1” (The Journal of membrane biology, 2021).

Ends that are not written are not given here.

Turning to FFKEFWTKMKGAGKAFFGKFKGFF [L1F], in data set [1], the “Acrylamide quenching Ksv, PCPG” value is 2.06 ± 0.97 M⁻¹; the “Acrylamide quenching Ksv, PEPG” value stood at 1.80 ± 0.77 M⁻¹; the “Acrylamide quenching Ksv, PC” value was found to be 1.57 ± 3.49 M⁻¹; the “Acrylamide quenching Ksv, PC/Chol” value was 1.63 ± 0.20 M⁻¹. Besides, the “Acrylamide quenching Ksv, PBS” value in data set [1] is 4.18 ± 4.79 M⁻¹. Also, the Hemolysis result in data set [2] was “do not cross the threshold for inducing hemolytic activity”. In addition, the “Antimicrobial activity (summary of MIC results)” value in data set [3] was “broad spectrum activity”.
LLKELWTKMKGAGKALLGKLKGLL [L1L]: in data set [1], the “Acrylamide quenching Ksv, PCPG” value came to 3.51 ± 0.17 M⁻¹; the “Acrylamide quenching Ksv, PEPG” value was determined as 2.22 ± 4.04 M⁻¹; the “Acrylamide quenching Ksv, PC” value was determined as 4.08 ± 2.10 M⁻¹; the “Acrylamide quenching Ksv, PC/Chol” value was 8.92 ± 0.94 M⁻¹. In data set [1], the “Acrylamide quenching Ksv, PBS” value came to 4.26 ± 0.97 M⁻¹. In addition, the Hemolysis entry in data set [2] is on record as “do not cross the threshold for inducing hemolytic activity”. For the same sequence, the “Antimicrobial activity (summary of MIC results)” value in data set [3] is given as “broad spectrum activity”.
